Test results published in US9725465B2, “Biaryl acetamide compounds and methods of use thereof” (Ambit Biosciences Corporation, priority 2013, dated 2017).
Structures can show the parent of a compound that is named as a salt.

biological target: KIT kinase (Homo sapiens (Human), UniProt P10721); test: Competition binding assay (Kd), KIT; conditions: competition binding
Summary of the method: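 Kd derived from eleven-point threefold serial dilutions of compound competing with bead-bound ligand for kinase; bound kinase eluted and measured by quantitative PCR. Kinase supplied either as a T7 phage fusion or expressed in HEK-293 cells with a DNA tag; DMSO served as control.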

Chain of KIT kinase (P10721 26-976): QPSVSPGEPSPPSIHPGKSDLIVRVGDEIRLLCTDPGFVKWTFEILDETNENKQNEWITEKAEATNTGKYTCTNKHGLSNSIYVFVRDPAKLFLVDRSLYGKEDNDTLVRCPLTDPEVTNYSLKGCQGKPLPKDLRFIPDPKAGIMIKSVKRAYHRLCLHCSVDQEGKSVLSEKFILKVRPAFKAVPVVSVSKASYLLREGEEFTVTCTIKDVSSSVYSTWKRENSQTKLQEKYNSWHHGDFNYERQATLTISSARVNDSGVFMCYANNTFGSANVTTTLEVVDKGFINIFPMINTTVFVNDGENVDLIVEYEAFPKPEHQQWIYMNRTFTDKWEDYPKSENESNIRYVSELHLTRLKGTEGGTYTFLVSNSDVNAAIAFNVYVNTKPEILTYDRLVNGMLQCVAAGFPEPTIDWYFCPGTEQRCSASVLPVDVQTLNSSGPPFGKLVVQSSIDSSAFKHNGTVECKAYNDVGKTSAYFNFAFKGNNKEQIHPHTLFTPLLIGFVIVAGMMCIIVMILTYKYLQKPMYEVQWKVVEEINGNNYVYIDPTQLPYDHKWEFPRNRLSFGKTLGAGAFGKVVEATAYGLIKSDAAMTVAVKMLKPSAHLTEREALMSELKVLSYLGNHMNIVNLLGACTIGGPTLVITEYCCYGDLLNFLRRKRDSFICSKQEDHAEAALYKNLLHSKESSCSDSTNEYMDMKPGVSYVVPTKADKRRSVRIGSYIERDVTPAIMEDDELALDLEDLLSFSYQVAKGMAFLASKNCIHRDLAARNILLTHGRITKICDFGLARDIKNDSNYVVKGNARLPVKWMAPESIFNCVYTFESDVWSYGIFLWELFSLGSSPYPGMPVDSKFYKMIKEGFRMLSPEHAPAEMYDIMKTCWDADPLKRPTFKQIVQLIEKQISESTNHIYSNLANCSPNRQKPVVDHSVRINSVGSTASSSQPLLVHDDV

Kd | SMILES
< 5 nM | COc1cc2ncc(-c3ccc(CC(=O)Nc4cc(C(C)(C)C(F)(F)F)on4)c(F)c3)cc2cc1OCCN1CCOCC1 [Example 189, 2-[2-fluoro-4-[7-methoxy-6-(2-morpholinoethoxy)-3-quinolyl]phenyl]-N-[5-(2,2,2-trifluoro-1,1-dimethyl-ethyl)isoxazol-3-yl]acetamide]
< 5 nM | COc1cc2ncc(-c3cc(F)c(CC(=O)Nc4cc(C5(C(F)(F)F)CC5)on4)cc3F)nc2cc1OC [Example 218, 2-[4-(6,7-dimethoxyquinoxalin-2-yl)-2,5-difluoro-phenyl]-N-[5-[1-(trifluoro-methyl)cyclopropyl]isoxazol-3-yl]acetamide]

biological target: FLT3 kinase (Homo sapiens (Human), UniProt P36888); test: Competition binding assay (Kd), FLT3; conditions: competition binding
Sequence (P36888 27-993): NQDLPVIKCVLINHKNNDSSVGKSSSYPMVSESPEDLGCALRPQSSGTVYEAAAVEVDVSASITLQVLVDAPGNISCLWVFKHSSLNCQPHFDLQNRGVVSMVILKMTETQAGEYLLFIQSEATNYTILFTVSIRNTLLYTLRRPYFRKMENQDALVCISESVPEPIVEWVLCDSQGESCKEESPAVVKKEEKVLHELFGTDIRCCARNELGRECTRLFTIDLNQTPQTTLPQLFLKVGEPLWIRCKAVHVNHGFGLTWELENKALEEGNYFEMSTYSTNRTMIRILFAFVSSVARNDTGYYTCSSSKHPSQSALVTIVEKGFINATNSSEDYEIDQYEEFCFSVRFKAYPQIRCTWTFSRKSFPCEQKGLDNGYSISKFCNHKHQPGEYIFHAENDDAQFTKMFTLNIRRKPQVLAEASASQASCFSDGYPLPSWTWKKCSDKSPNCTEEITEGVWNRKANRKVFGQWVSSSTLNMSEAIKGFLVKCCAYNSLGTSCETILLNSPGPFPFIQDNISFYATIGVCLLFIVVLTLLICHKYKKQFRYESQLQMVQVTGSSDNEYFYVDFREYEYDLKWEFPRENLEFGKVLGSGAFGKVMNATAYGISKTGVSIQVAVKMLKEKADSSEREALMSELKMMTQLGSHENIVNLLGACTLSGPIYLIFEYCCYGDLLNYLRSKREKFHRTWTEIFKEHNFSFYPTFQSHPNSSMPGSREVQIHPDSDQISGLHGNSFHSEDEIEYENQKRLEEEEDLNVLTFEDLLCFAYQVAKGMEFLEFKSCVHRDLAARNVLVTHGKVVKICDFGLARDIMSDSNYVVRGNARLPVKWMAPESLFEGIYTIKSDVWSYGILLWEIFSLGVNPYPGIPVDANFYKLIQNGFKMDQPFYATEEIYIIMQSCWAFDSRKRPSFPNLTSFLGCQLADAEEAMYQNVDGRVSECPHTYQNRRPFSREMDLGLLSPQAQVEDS

Kd | SMILES
< 5 nM | COc1cc2ncc(-c3ccc(CC(=O)Nc4cc(C(C)(C)C(F)(F)F)on4)c(F)c3)cc2cc1OCCN1CCOCC1 [Example 189, 2-[2-fluoro-4-[7-methoxy-6-(2-morpholinoethoxy)-3-quinolyl]phenyl]-N-[5-(2,2,2-trifluoro-1,1-dimethyl-ethyl)isoxazol-3-yl]acetamide]
< 5 nM | COc1cc2ncc(-c3cc(F)c(CC(=O)Nc4cc(C5(C(F)(F)F)CC5)on4)cc3F)nc2cc1OC [Example 218, 2-[4-(6,7-dimethoxyquinoxalin-2-yl)-2,5-difluoro-phenyl]-N-[5-[1-(trifluoro-methyl)cyclopropyl]isoxazol-3-yl]acetamide]

biological target: FLT3-ITD (Homo sapiens (Human), UniProt P36888, INS600HVDFREYEYD); test: pFLT3 MSD assay, Ba/F3 FLT3-ITD; type: cell-based; conditions: Ba/F3 FLT3-ITD cells, 2 hours, read-out: BaF3-FLT3-ITD pFlt3 IC50
Sequence (P36888 other isoform, or with tags, fused parts or gaps limits assumed, stated change not applied): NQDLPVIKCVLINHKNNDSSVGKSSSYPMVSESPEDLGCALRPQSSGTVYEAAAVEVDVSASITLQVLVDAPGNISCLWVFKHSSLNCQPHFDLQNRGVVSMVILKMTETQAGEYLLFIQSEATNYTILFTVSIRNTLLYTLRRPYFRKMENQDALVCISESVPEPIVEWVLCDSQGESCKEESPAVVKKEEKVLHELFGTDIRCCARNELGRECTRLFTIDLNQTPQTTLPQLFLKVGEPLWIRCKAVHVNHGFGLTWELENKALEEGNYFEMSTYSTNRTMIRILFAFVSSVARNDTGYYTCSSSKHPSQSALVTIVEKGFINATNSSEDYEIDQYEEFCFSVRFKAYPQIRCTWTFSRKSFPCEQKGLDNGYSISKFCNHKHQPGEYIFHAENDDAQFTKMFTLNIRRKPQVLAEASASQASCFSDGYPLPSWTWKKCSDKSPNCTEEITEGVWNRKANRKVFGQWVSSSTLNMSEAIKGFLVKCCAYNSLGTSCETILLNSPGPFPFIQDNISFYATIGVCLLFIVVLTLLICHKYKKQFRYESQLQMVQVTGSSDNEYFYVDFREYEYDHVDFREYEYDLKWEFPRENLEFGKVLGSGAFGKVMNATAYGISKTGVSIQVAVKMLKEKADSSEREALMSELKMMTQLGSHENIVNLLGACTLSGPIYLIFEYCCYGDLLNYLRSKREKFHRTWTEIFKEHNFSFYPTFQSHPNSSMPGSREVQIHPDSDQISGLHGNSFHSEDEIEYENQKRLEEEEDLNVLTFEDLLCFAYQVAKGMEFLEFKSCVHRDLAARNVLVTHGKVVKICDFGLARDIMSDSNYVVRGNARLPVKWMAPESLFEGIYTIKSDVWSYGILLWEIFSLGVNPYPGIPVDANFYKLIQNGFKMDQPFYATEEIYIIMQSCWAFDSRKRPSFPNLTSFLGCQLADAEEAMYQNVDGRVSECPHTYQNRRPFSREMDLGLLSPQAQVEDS

IC50 | SMILES
< 10 nM | CC(C)(c1cc(NC(=O)Cc2ccc(-c3cnc4[nH]ccc4c3)cc2)no1)C(F)(F)F [Example 26, 2-(4-(1H-pyrrolo[2,3-b]pyridin-5-yl)phenyl)-N-(5-(1,1,1-trifluoro-2-methylpropan-2-yl)isoxazol-3-yl)acetamide]
< 10 nM | CC(C)(C)c1cc(NC(=O)Cc2ccc(-c3cnc4[nH]ncc4c3)cc2F)no1 [Example 32, N-(5-(tert-butyl)isoxazol-3-yl)-2-(2-fluoro-4-(1H-pyrazolo[3,4-b]pyridin-5-yl)phenyl)acetamide]
< 10 nM | CN(C)C(=O)c1cc2cc(-c3ccc(CC(=O)Nc4cc(C(C)(C)C)on4)cc3)cnc2[nH]1 [Example 49, 5-(4-(2-((5-(tert-butyl)isoxazol-3-yl)amino)-2-oxoethyl)phenyl)-N,N-dimethyl-1H-pyrrolo[2,3-b]pyridine-2-carboxamide]
< 10 nM | COc1cc2ncc(-c3ccc(CC(=O)Nc4cc(C5(C(F)(F)F)CC5)on4)cc3)nc2cc1OC [Example 1, 2-(4-(6,7-dimethoxyquinoxalin-2-yl)phenyl)-N-(5-(1-(trifluoromethyl)cyclopropyl)isoxazol-3-yl)acetamide]
< 10 nM | CC(C)(C)c1cc(NC(=O)Cc2ccc(-c3cnc4[nH]cc(CO)c4c3)cc2)no1 [Example 60, N-(5-(tert-butyl)isoxazol-3-yl)-2-(4-(3-(hydroxymethyl)-1H-pyrrolo[2,3-b]pyridin-5-yl)phenyl)acetamide]
< 10 nM | COc1n[nH]c2ncc(-c3ccc(CC(=O)Nc4cc(C(C)(C)C(F)(F)F)on4)cc3)cc12 [Example 35, 2-(4-(3-methoxy-1H-pyrazolo[3,4-b]pyridin-5-yl)phenyl)-N-(5-(1,1,1-trifluoro-2-methylpropan-2-yl)isoxazol-3-yl)acetamide]
< 10 nM | COc1cc(OC)c2cc(-c3ccc(CC(=O)Nc4cc(C5(C(F)(F)F)CC5)on4)c(F)c3)cnc2c1 [Example 36, 2-(4-(5,7-dimethoxyquinolin-3-yl)-2-fluorophenyl)-N-(5-(1-(trifluoromethyl)cyclopropyl)isoxazol-3-yl)acetamide]
< 10 nM | CN(C)Cc1cc2cc(-c3ccc(CC(=O)Nc4cc(C(C)(C)C)on4)cc3)cnc2[nH]1 [Example 52, N-(5-(tert-butyl)isoxazol-3-yl)-2-(4-(2-((dimethylamino)methyl)-1H-pyrrolo[2,3-b]pyridin-5-yl)phenyl)acetamide]
< 10 nM | CC(C)(C)c1cc(NC(=O)Cc2ccc(-c3cnc4[nH]c(CO)cc4c3)cc2)no1 [Example 50, N-(5-(tert-butyl)isoxazol-3-yl)-2-(4-(2-(hydroxymethyl)-1H-pyrrolo[2,3-b]pyridin-5-yl)phenyl)acetamide]
< 10 nM | COc1cc2ncc(-c3ccc(CC(=O)Nc4cc(C5(C(F)(F)F)CC5)on4)cc3F)nc2cc1OC [Example 42, 2-(4-(6,7-dimethoxyquinoxalin-2-yl)-3-fluorophenyl)-N-(5-(1-(trifluoromethyl)cyclopropyl)isoxazol-3-yl)acetamide]
< 10 nM | CC(C)(c1cc(NC(=O)Cc2ccc(-c3cnc4[nH]nnc4c3)cc2)no1)C(F)(F)F [Example 41, 2-(4-(3H-[1,2,3]triazolo[4,5-b]pyridin-6-yl)phenyl)-N-(5-(1,1,1-trifluoro-2-methylpropan-2-yl)isoxazol-3-yl)acetamide]
< 10 nM | Cc1n[nH]c2ncc(-c3ccc(CC(=O)Nc4cc(C(C)(C)C)on4)c(F)c3)cc12 [Example 51, N-(5-(tert-butyl)isoxazol-3-yl)-2-(2-fluoro-4-(3-methyl-1H-pyrazolo[3,4-b]pyridin-5-yl)phenyl)acetamide]
< 10 nM | O=C(Cc1ccc(-c2cnc3[nH]ccc3c2)cc1F)Nc1cc(C2(C(F)(F)F)CC2)on1 [Example 28, 2-(2-fluoro-4-(1H-pyrrolo[2,3-b]pyridin-5-yl)phenyl)-N-(5-(1-(trifluoromethyl)cyclopropyl)isoxazol-3-yl)acetamide]
< 10 nM | CC(C)(C)c1cc(NC(=O)Cc2ccc(-c3cnc4[nH]ncc4c3)cc2)no1 [Example 31, 2-(4-(1H-pyrazolo[3,4-b]pyridin-5-yl)phenyl)-N-(5-(tert-butyl)isoxazol-3-yl)acetamide]
< 10 nM | COCCOc1n[nH]c2ncc(-c3ccc(CC(=O)Nc4cc(C(C)(C)C(F)(F)F)on4)cc3)cc12 [Example 47, 2-(4-(3-(2-methoxyethoxy)-1H-pyrazolo[3,4-b]pyridin-5-yl)phenyl)-N-(5-(1,1,1-trifluoro-2-methylpropan-2-yl)isoxazol-3-yl)acetamide]
< 10 nM | COc1n[nH]c2ncc(-c3ccc(CC(=O)Nc4cc(C5(C(F)(F)F)CC5)on4)c(F)c3)cc12 [Example 53, 2-(2-fluoro-4-(3-methoxy-1H-pyrazolo[3,4-b]pyridin-5-yl)phenyl)-N-(5-(1-(trifluoromethyl)cyclopropyl)isoxazol-3-yl)acetamide]
< 10 nM | CN(C)c1n[nH]c2ncc(-c3ccc(CC(=O)Nc4cc(C5(C(F)(F)F)CC5)on4)c(F)c3)cc12 [Example 61, 2-(4-(3-(dimethylamino)-1H-pyrazolo[3,4-b]pyridin-5-yl)-2-fluorophenyl)-N-(5-(1-(trifluoromethyl)cyclopropyl)isoxazol-3-yl)acetamide]
< 10 nM | CC(C)(C)c1cc(NC(=O)Cc2ccc(-c3cnc4[nH]ccc4c3)cc2)no1 [Example 25, 2-(4-(1H-pyrrolo[2,3-b]pyridin-5-yl)phenyl)-N-(5-(tert-butyl)isoxazol-3-yl)acetamide]
< 10 nM | CN(C)Cc1n[nH]c2ncc(-c3ccc(CC(=O)Nc4cc(C(C)(C)C)on4)c(F)c3)cc12 [Example 58, N-(5-(tert-butyl)isoxazol-3-yl)-2-(4-(3-((dimethylamino)methyl)-1H-pyrazolo[3,4-b]pyridin-5-yl)-2-fluorophenyl)acetamide]
< 10 nM | CN(C)C(=O)c1n[nH]c2ncc(-c3ccc(CC(=O)Nc4cc(C(C)(C)C)on4)cc3)cc12 [Example 45, 5-(4-(2-((5-(tert-butyl)isoxazol-3-yl)amino)-2-oxoethyl)phenyl)-N,N-dimethyl-1H-pyrazolo[3,4-b]pyridine-3-carboxamide]
< 10 nM | CNCc1n[nH]c2ncc(-c3ccc(CC(=O)Nc4cc(C(C)(C)C)on4)c(F)c3)cc12 [Example 57, N-(5-(tert-butyl)isoxazol-3-yl)-2-(2-fluoro-4-(3-((methylamino)methyl)-1H-pyrazolo[3,4-b]pyridin-5-yl)phenyl)acetamide]
< 10 nM | CC(C)(c1cc(NC(=O)Cc2ccc(-c3cnc4[nH]nc(OC5CCNCC5)c4c3)cc2)no1)C(F)(F)F [Example 48, 2-(4-(3-(piperidin-4-yloxy)-1H-pyrazolo[3,4-b]pyridin-5-yl)phenyl)-N-(5-(1,1,1-trifluoro-2-methylpropan-2-yl)isoxazol-3-yl)acetamide formate salt]
< 10 nM | COc1cc2ncc(-c3ccc(CC(=O)Nc4cc(C5(C(F)(F)F)CC5)no4)cc3)nc2cc1OC [Example 72, 2-(4-(6,7-dimethoxyquinoxalin-2-yl)phenyl)-N-(3-(1-(trifluoromethyl)cyclopropyl)isoxazol-5-yl)acetamide]
< 10 nM | O=C(Cc1ccc(-c2cnc3[nH]ncc3c2)cc1F)Nc1cc(C2(C(F)(F)F)CCC2)on1 [Example 56, 2-(2-Fluoro-4-(1H-pyrazolo[3,4-b]pyridin-5-yl)phenyl)-N-(5-(1-(trifluoromethyl)cyclobutyl)isoxazol-3-yl)acetamide]
< 10 nM | CC(C)(C)c1cc(NC(=O)Cc2ccc(-c3cnc4[nH]ccc4c3)cc2)on1 [Example 71, 2-(4-(1H-pyrrolo[2,3-b]pyridin-5-yl)phenyl)-N-(3-(tert-butyl)isoxazol-5-yl)acetamide]
< 10 nM | CC(C)(C)c1cc(NC(=O)Cc2ccc(-c3cnc4[nH]nc(CO)c4c3)cc2F)no1 [Example 55, N-(5-(tert-butyl)isoxazol-3-yl)-2-(2-fluoro-4-(3-(hydroxymethyl)-1H-pyrazolo[3,4-b]pyridin-5-yl)phenyl)acetamide]
10 to 20 nM | CNCc1c[nH]c2ncc(-c3ccc(CC(=O)Nc4cc(C(C)(C)C)on4)cc3)cc12 [Example 54, N-(5-(tert-butyl)isoxazol-3-yl)-2-(4-(3-((methylamino)methyl)-1H-pyrrolo[2,3-b]pyridin-5-yl)phenyl)acetamide]
< 10 nM | CC(C)(c1cc(NC(=O)Cc2ccc(-c3cnc4[nH]ccc4c3)cc2F)no1)C(F)(F)F [Example 29, 2-(2-fluoro-4-(1H-pyrrolo[2,3-b]pyridin-5-yl)phenyl)-N-(5-(1,1,1-trifluoro-2-methylpropan-2-yl)isoxazol-3-yl)acetamide]
< 10 nM | O=C(Cc1ccc(-c2cnc3[nH]ncc3c2)cc1F)Nc1cc(C2(C(F)(F)F)CC2)on1 [Example 33, 2-(2-fluoro-4-(1H-pyrazolo[3,4-b]pyridin-5-yl)phenyl)-N-(5-(1-(trifluoromethyl)cyclopropyl)isoxazol-3-yl)acetamide]
< 10 nM | CC(C)(C)c1cc(NC(=O)Cc2ccc(-c3cnc4[nH]ccc4c3)cc2F)no1 [Example 27, N-(5-(tert-butyl)isoxazol-3-yl)-2-(2-fluoro-4-(1H-pyrrolo[2,3-b]pyridin-5-yl)phenyl)acetamide]
